Measurements as given in article PMC1977804, “Somatostatin binding in normal and malignant human gastrointestinal mucosa” (British Journal of Cancer, 1992).
Like-named read-outs stand apart in the source and are kept apart here. Bridges are numbered along the chain shown (N, C = ends). Where no end group is shown, it is not given here. The star is where a group is joined. 125I = [125I]*

Columns and labels:
[1] = tested on: somatostatin binding sites, human gastric adenocarcinoma membranes; experiment: competitive displacement of 125I-tyr-11-somatostatin-14, human gastric adenocarcinoma plasma membranes
From the text: (§1) Br. J. Cancer (1992), 66, 391 395 ? Macmillan Press Ltd., 1992~~~~~~~~~~~~~~~~~~~~~~~~~~~~~~~~~~~~~~~~~~~~~~~~~~~~~~~~~~~~~~ Somatostatin binding in normal and malignant human gastrointestinal mucosa G.V. Miller, S.M. Farmery, L.F. Woodhouse & J.N. Primrose University Department of Surgery, St. James's University Hospital, Beckett Street, Leeds LS9 7TF, UK. Summary Somatostatin is a regulatory peptide implicated in the control of cellular proliferation in epithelial tissues and this regulation may occur directly via membrane bound receptor activation. The aim of this study was to investigate somatostatin binding in human gastrointestinal cancer and normal mucosa. Plasma membranes were prepared from specimens of tumour and normal mucosa from 51 patients undergoing surgical resection for malignancy (28 gastric, 23 colorectal). Using a competitive displacement assay, specific '251-tyrosine -1 -somatostatin-14 binding to plasma membranes was assessed and characterised in terms of receptor affinity (Kd) and maximum binding capacity (Bmax) as determined by Scatchard analysis. […] Similar affinity and binding capacity was demonstrable in normal mucosal samples. […] The functional significance of these low affinity binding sites requires elucidation to determine whether long-acting somatostatin analogues may have therapeutic benefit in gastrointestinal malignancy. Hormonal manipulation, by surgical or medical methods, has been used extensively in therapy for carcinoma of the breast, prostate, thyroid and in certain gut endocrine tumours (Horowitz et al., 1975; Higgins et al., 1941; Crile, 1957; Osei et al., 1985). There is, however, no currently defined role for endocrine therapy in non-endocrine gastrointestinal cancer. […] Any benefit from systemic therapy is usually abrogated by systemic toxicity (Rake et al., 1979; Engstrom et al., 1985; Bleiberg, 1990). For this reason a non-toxic, effective, treat- ment modality would be of value to improve the outlook for those patients with advanced disease. There is increasing evidence that tumours arising from the gastrointestinal tract are, at least in part, hormone depen- dent. Numerous hormones have now been implicated in the pathogenesis and development of gastrointestinal malig- nancy, including gastrin, epidermal growth factor, entero- pancreatic hormones and oestrogenic steroids (Sirinek et al., 1985; Watson et al., 1988; Li et al., 1980; Howatson & Carter, 1985; McMichael et al., 1980). […] Somatostatin and its analogues are good candidates for use as endocrine agents in the treatment of gastrointestinal cancer. The native peptide is widely distributed in the body and, amongst its many inhibitory actions, has a putative role as an anti-proliferative agent in both normal (Lehy et al., 1979) and malignant (Singh et al., 1986) tissue. The mechanisms involved in this anti-proliferative action have not, as yet, been confirmed. Both the native peptide and its analogues act at the somatotrophs of the anterior pituitary suppressing growth hormone production and release (Adrian et al., 1981). This may influence the proliferation of target tissues directly or may result in a substantial reduction in local growth factor release (Kirkegaard et al., 1984). Further, the production of other trophic hormones such as gastrin Correspondence: J.N. Primrose, University Department of Surgery, Clinical Sciences Building, St James's University Hospital, Beckett St, Leeds LS9 7TF, UK. Received 18 November 1991; and in revised form 9 March 1992. and insulin, either from normal cells or from hormonally active tumour cells, could be suppressed by somatostatin (Morris et al., 1988). The most interesting mechanism, how- ever, involves the interaction of the peptide with specific membrane bound receptors upon proliferating cells. […]

[2] = native peptide; no reference printed for this sentence; cited from earlier work
From the text: Br. J. Cancer (1992), 66, 391 395 ? Macmillan Press Ltd., 1992~~~~~~~~~~~~~~~~~~~~~~~~~~~~~~~~~~~~~~~~~~~~~~~~~~~~~~~~~~~~~~ Somatostatin binding in normal and malignant human gastrointestinal mucosa G.V. Miller, S.M. Farmery, L.F. Woodhouse & J.N. Primrose University Department of Surgery, St. James's University Hospital, Beckett Street, Leeds LS9 7TF, UK. Summary Somatostatin is a regulatory peptide implicated in the control of cellular proliferation in epithelial tissues and this regulation may occur directly via membrane bound receptor activation. The aim of this study was to investigate s ...

[3] = tested on: somatostatin receptors, rat cerebral cortex membranes; experiment: competitive displacement of 125I-tyr-11-somatostatin-14, rat cerebral cortex plasma membranes (positive control); assay type: binding, rat (Wistar)
From the text: as §1, with “cancer.” for “cancer. The native peptide is widely distributed in the body and, amongst its many inhibitory actions, has a putative role as an anti-proliferative agent in both normal (Lehy et al., 1979) and malignant (Singh et al., 1986) tissue. The mechanisms involved in this anti-proliferative action have not, as yet, been confirmed. Both the native peptide and its analogues act at the somatotrophs of the anterior pituitary suppressing growth hormone production and release (Adrian et al., 1981). This may influence the proliferation of target tissues directly or may result in a substantial reduction in local growth factor release (Kirkegaard et al., 1984). Further, the production of other trophic hormones such as gastrin Correspondence: J.N. Primrose, University Department of Surgery, Clinical Sciences Building, St James's University Hospital, Beckett St, Leeds LS9 7TF, UK. Received 18 November 1991; and in revised form 9 March 1992. and insulin, either from normal cells or from hormonally active tumour cells, could be suppressed by somatostatin (Morris et al., 1988). The most interesting mechanism, how- ever, involves the interaction of the peptide with specific membrane bound receptors upon proliferating cells.”

[4] = tested on: somatostatin binding sites, gastric body mucosal plasma membranes; experiment: competitive displacement of 125I-tyr-11-somatostatin-14, normal gastric body mucosa plasma membranes; design: species or system human; conditions: 21 of 28 preparations, including mucosa of the patient with high affinity tumour, Scatchard/LIGAND, pH 7.4, 1 h, 35 °C, median (quartiles)
From the text: (§2) Br. J. Cancer (1992), 66, 391 395 ? Macmillan Press Ltd., 1992~~~~~~~~~~~~~~~~~~~~~~~~~~~~~~~~~~~~~~~~~~~~~~~~~~~~~~~~~~~~~~ Somatostatin binding in normal and malignant human gastrointestinal mucosa G.V. Miller, S.M. Farmery, L.F. Woodhouse & J.N. Primrose University Department of Surgery, St. James's University Hospital, Beckett Street, Leeds LS9 7TF, UK. Summary Somatostatin is a regulatory peptide implicated in the control of cellular proliferation in epithelial tissues and this regulation may occur directly via membrane bound receptor activation. The aim of this study was to investigate somatostatin binding in human gastrointestinal cancer and normal mucosa. Plasma membranes were prepared from specimens of tumour and normal mucosa from 51 patients undergoing surgical resection for malignancy (28 gastric, 23 colorectal). Using a competitive displacement assay, specific '251-tyrosine -1 -somatostatin-14 binding to plasma membranes was assessed and characterised in terms of receptor affinity (Kd) and maximum binding capacity (Bmax) as determined by Scatchard analysis. […] Similar affinity and binding capacity was demonstrable in normal mucosal samples. […] The functional significance of these low affinity binding sites requires elucidation to determine whether long-acting somatostatin analogues may have therapeutic benefit in gastrointestinal malignancy. […]

[5] = tested on: somatostatin binding sites, colorectal adenocarcinoma plasma membranes; experiment: competitive displacement of 125I-tyr-11-somatostatin-14, human colorectal adenocarcinoma plasma membranes; conditions: for Bmax: Table I, colorectal
From the text: as §1

[6] = tested on: somatostatin binding sites, normal colonic mucosa plasma membranes; experiment: competitive displacement of 125I-tyr-11-somatostatin-14, normal colonic mucosa plasma membranes; design: species or system human; conditions: 15 of 23 preparations; Scatchard/LIGAND; pH 7.4, 1 h, 35 °C; median (quartiles)
From the text: as §2

With somatostatin-14 the Bmax ([1]; Figure 2 inset, single representative experiment, Scatchard plot) was 6.1 pmol mg-1 protein, the Kd ([1]; Figure 2 inset, single representative experiment, Scatchard plot, read-out: Kd) was 165 nM and the Bmax ([1]; Table I, gastric, grade Mod, pH 7.4, 1 h, 35 °C, median (quartiles)) was 1.04 (0.23-6.23) pmol mg-1 protein. For the same substance, the Bmax ([1]; Table I, gastric, grade Poor, pH 7.4, 1 h, 35 °C, median (quartiles)) was 1.17 (0.67-5.71) pmol mg-1 protein, the Bmax ([1]; Table I, gastric, grade Well, pH 7.4, 1 h, 35 °C, one sample) was 5.11 pmol mg-1 protein and the Bmax ([1]; Table I, gastric, site: Antrum, pH 7.4, 1 h, 35 °C, median (quartiles)) was 1.04 (0.67 -3.36) pmol mg-1 protein. The Bmax ([1]; Table I, gastric, site: Body, pH 7.4, 1 h, 35 °C, median (quartiles)) was 0.83 (0.25 -7.43) pmol mg-1 protein, the Bmax ([1]; Table I, gastric, site: Cardia, pH 7.4, 1 h, 35 °C, median (quartiles)) was 1.73 (1.23-5.11) pmol mg-1 protein and the Bmax ([1]; Table I, gastric, stage I (TNM), pH 7.4, 1 h, 35 °C, one sample) was 0.28 pmol mg-1 protein. For the same substance, the Bmax ([1]; Table I, gastric, stage II (TNM), pH 7.4, 1 h, 35 °C, median (quartiles)) was 0.79 (0.23-1.04) pmol mg-1 protein, the Bmax ([1]; Table I, gastric, stage III (TNM), pH 7.4, 1 h, 35 °C, median (quartiles)) was 1.24 (0.77-6.11) pmol mg-1 protein and the Bmax ([1]; Table I, gastric, stage IV (TNM), pH 7.4, 1 h, 35 °C, one sample) was 6.3 pmol mg-1 protein. For the same substance, the “Bmax, low affinity high capacity binding” value ([1]; abstract, 22 gastric cancers, Scatchard analysis) was 1.2 pmol mg-1 protein, the “Bmax, high affinity receptors” value ([1]; one gastric carcinoma (one patient), Scatchard/LIGAND) was 0.23 pmol mg-1 protein and the Kd ([1]; one gastric carcinoma (one patient), Scatchard/LIGAND, read-out: Kd, high affinity receptors) was 0.9 nM. The “half life in the circulation” value [2] was “less than 3 min”, the Bmax ([3]; Figure 1 inset, single representative experiment, Scatchard plot by LIGAND) was 0.21 pmol mg-1 protein and the Kd ([3]; Figure 1 inset, single representative experiment, Scatchard plot by LIGAND, read-out: Kd) was 0.92 nM. For the same substance, the Kd ([3]; Scatchard/LIGAND, HEPES-KOH pH 7.4, 1 h, 35 °C, median (range), read-out: receptor affinity (Kd)) was 0.85 nM, the “Bmax, low affinity high capacity binding” value [4] was 3.9 (1.2-6.6) pmol mg-1 protein and the Kd ([4]; read-out: Kd, low affinity high capacity binding) was 180 nM. For the same substance, the “Bmax, low affinity high capacity binding” value ([5]; 17 of 23 preparations, Scatchard/LIGAND, pH 7.4, 1 h, 35 °C, median (quartiles)) was 1.8 (1.2-2.9) pmol mg-1 protein, the Bmax ([5]; grade Mod, pH 7.4, 1 h, 35 °C, median (quartiles)) was 1.72 (1.30-2.69) pmol mg-1 protein and the Bmax ([5]; grade Poor, pH 7.4, 1 h, 35 °C, median (quartiles)) was 1.81 (0.74-2.87) pmol mg-1 protein. The Bmax ([5]; grade Well, pH 7.4, 1 h, 35 °C, median (quartiles)) was 1.75 (0.49-2.99) pmol mg-1 protein, the Bmax ([5]; site: (R) Colon, pH 7.4, 1 h, 35 °C, median (quartiles)) was 2.99 (2.12-3.94) pmol mg-1 protein and the Bmax ([5]; site: Rectum, pH 7.4, 1 h, 35 °C, median (quartiles)) was 1.67 (1.02-2.78) pmol mg-1 protein. For the same substance, the Bmax ([5]; site: Sigmoid, pH 7.4, 1 h, 35 °C, median (quartiles)) was 0.49 (0.11 -1.75) pmol mg-1 protein, the Bmax ([5]; stage A (Dukes), pH 7.4, 1 h, 35 °C, one sample) was 3.40 pmol mg-1 protein and the Bmax ([5]; stage B (Dukes), pH 7.4, 1 h, 35 °C, median (quartiles)) was 1.72 (1.30-2.99) pmol mg-1 protein. The Bmax ([5]; stage C (Dukes), pH 7.4, 1 h, 35 °C, median (quartiles)) was 1.48 (0.62-2.41) pmol mg-1 protein, the “Bmax, low affinity high capacity binding” value ([5]; abstract, 17 colorectal cancers, Scatchard analysis) was 1.8 pmol mg-1 protein and the Kd ([5]; abstract, 17 colorectal cancers, Scatchard analysis, read-out: Kd, low affinity binding) was 140 nM. The Bmax [6] was 0.7 (0.3-3.5) pmol mg-1 protein and the Kd [6] was 130 nM.

In the case of “125I-tyrosine-11-somatostatin-14 (AGCKNFFWKTY(125I)TSC; disulfide 3-14; ends not checked; UniProt P61278 103-116, looked up, variant F11Y) [125I-tyr-11-somatostatin-14, radioligand made by Chloramine T iodination of tyr-11-somatostatin-14]”, the “Bmax, low affinity binding” value ([1]; 22 of 28 tumours, Scatchard/LIGAND, pH 7.4, 1 h, 35 °C, median (quartiles)) is reported as 1.2 (0.7-5.7) pmol mg-1 protein, the Kd ([1]; 22 of 28 tumours, Scatchard/LIGAND, pH 7.4, 1 h, 35 °C, median (quartiles), read-out: affinity (Kd), low affinity binding) is reported as 170 nM and the “increase in specific bound counts at 35 °C versus 21 °C” value ([3]; 35 °C versus room temperature (21 °C)) is reported as 20-30%.
